What was measured:
sigma binding site = experiment: Sigma binding affinity using [^3 H]-(+)-3-(3'-hydroxyphenyl) N (1'-propyl)piperidine ([^3 H]3PPP); conditions: [^3 H]3PPP radioligand, in vitro
Procedure: (§1) Sigma binding affinities are measured using [^3 H]-(+)-3-(3'-hydroxyphenyl) N (1'-propyl)piperidine, referred to in the following Table I as 3PPP. This test is carried out according to the procedures of B. L. Largent, et al, Proc. Natl. Acad. Sci., USA, 1984; 81:5618. The affinity of the compounds of the present invention for dopamine receptors was determined in vitro with the dopamine antagonist [^3 H]spiperone according to the procedure of S. Urwyler, et al, J. Neurochem. 1986; 46:1058. The ability of the compounds to bind muscarinic antagonist sites was determined in vitro using [^3 H]-quinuclidinyl benzylate (RQNB) according to the procedure of M. Watson, et al, J. Pharmacol. Exp. Ther. 1986; 237:411.

[1] = tested on: muscarinic antagonist sites; experiment: Binding to muscarinic antagonist sites using [^3 H]-quinuclidinyl benzylate (RQNB); conditions: in vitro
Procedure: as §1

dopamine receptors = experiment: Affinity for dopamine receptors with the dopamine antagonist [^3 H]spiperone (RBSP); format: binding; conditions: in vitro
Procedure: as §1

IC50 (sigma binding site) [nM]	RQNB % Inhib at 10^-6 M [1] [%]	IC50 (dopamine receptors) [nM]	Compound
2.07	27	> 1000	CCCN1CC=CC(CCC(=NO)c2ccccc2)C1.O=C(O)C(=O)O (stereo not drawn) [1(e)(a), 1-Phenyl-3-(1,2,3,6-tetrahydro-1-propyl-3-pyridinyl)-1-propanone oxime oxalate]
2.39	9	> 1000	CCCN1CCC=C(CCC(=NO)c2ccc(OC)cc2)C1.O=C(O)C(=O)O [2(e)(b), 1-(4-Methoxyphenyl)-3-(1,2,5,6-tetrahydro-1-propyl-3-pyridinyl)-1-propanone oxime oxalate]
6.49	6	> 1000	CCCN1CC=CC(CCC(=NO)c2ccc(OC)cc2)C1.O=C(O)C(=O)O (stereo not drawn) [2(e)(a), 1-(4-Methoxyphenyl)-3-(1,2,3,6-tetrahydro-1-propyl-3-pyridinyl)-1-propanoneoxime oxalate]
1.99	10	> 1000	CCCN1CCC=C(CCC(=NO)c2ccccc2)C1.O=C(O)C(=O)O [1(e)(b), 1-Phenyl-3-(1,2,5,6-tetrahydro-1-propyl-3-pyridinyl)-1-propanone oxime oxalate]

Reference: patent publication US5208343A, “Tetrahydropyridine oxime compounds” (Warner-Lambert Company, priority 1992, dated 1993)
